Two compounds from ChEMBL document CHEMBL3886358, “Quinolyl-containing hydroxamic acid compound and preparation method thereof, and pharmaceutical composition containing this compound and use thereof” (2015) can be followed below.

The target of assay [1] is T1, Protein deacetylase HDAC6 (Homo sapiens, UniProt Q9UBN7).
T1 sequence (Q9UBN7 whole entry): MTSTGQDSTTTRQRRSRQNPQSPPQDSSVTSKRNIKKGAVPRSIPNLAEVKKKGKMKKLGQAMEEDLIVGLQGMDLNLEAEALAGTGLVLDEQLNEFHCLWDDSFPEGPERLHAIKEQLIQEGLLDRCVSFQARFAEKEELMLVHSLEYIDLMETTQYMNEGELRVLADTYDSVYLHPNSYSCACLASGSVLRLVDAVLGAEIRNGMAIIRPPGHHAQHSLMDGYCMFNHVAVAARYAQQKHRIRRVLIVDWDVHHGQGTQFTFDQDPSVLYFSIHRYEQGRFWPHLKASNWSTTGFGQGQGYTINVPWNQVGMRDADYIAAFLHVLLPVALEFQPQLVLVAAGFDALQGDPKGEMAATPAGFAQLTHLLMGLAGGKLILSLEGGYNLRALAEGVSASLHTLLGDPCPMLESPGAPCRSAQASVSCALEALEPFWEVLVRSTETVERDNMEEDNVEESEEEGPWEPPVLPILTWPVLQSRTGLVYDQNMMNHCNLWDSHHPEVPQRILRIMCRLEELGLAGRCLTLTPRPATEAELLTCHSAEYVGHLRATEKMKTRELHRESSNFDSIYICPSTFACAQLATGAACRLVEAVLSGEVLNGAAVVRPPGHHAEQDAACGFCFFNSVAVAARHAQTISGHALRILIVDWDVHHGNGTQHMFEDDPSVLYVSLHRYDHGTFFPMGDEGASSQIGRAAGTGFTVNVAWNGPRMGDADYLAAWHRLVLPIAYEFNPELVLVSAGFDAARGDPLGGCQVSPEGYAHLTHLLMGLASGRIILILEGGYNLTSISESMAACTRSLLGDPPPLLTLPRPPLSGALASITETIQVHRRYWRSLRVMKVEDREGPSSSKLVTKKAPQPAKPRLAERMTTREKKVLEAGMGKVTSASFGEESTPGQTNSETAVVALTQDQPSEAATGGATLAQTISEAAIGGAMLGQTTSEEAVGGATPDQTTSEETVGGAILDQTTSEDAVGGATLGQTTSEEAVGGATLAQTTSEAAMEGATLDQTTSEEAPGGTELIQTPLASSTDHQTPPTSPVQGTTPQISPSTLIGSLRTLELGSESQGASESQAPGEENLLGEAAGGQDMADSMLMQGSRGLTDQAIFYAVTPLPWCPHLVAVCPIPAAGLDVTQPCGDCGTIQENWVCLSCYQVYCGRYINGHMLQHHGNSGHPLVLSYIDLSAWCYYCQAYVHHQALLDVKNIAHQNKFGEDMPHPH
Description: (§1) Inhibition Assay: The inhibitions of activities of HDAC enzymes by the compounds N1'-[3-fluoro-4-[[7-[4-(hydroxyamino)-4-oxobutoxy]-6-methoxy-4-quinolyl]oxy]phenyl]-N1-(4-fluoro phenyl)cyclopropane-1,1-dicarboxamide prepared in Example 9 and N1'-[3-fluoro-4-[[7-[6-(hydroxyamino)-6-oxohexyloxy]-6-methoxy-4-quinolyl]oxy]phenyl]-N1-(4-fluo rophenyl)cyclopropane-1,1-dicarboxamide prepared in Example 13 were measured by Reaction Biology Corporation (Reaction Biology Corp., One Great Valley Parkway, Suite 2, Malvern, PA 19355, USA . http://www.reactionbiology.com/pages/hdac.htm). The HDAC enzymes tested include the following 11 HDAC isoforms: HDAC1, HDAC2, HDAC3, HDAC4, HDAC5, HDAC6, HDAC7, HDAC8, HDAC9, HDAC10 and HDAC11.Specific steps were as follows: The compound of the present invention was dissolved in dimethyl sulfoxide (DMSO) to make a stock solution of 10 mM. The stock solution was diluted in 4-fold series starting from 10 mM to prepare 10 different dosages.

In the next assay the target is Histone deacetylase 5 (Homo sapiens, UniProt Q9UQL6). The assay is described as §1.
Histone deacetylase 5, sequence (Q9UQL6 whole entry): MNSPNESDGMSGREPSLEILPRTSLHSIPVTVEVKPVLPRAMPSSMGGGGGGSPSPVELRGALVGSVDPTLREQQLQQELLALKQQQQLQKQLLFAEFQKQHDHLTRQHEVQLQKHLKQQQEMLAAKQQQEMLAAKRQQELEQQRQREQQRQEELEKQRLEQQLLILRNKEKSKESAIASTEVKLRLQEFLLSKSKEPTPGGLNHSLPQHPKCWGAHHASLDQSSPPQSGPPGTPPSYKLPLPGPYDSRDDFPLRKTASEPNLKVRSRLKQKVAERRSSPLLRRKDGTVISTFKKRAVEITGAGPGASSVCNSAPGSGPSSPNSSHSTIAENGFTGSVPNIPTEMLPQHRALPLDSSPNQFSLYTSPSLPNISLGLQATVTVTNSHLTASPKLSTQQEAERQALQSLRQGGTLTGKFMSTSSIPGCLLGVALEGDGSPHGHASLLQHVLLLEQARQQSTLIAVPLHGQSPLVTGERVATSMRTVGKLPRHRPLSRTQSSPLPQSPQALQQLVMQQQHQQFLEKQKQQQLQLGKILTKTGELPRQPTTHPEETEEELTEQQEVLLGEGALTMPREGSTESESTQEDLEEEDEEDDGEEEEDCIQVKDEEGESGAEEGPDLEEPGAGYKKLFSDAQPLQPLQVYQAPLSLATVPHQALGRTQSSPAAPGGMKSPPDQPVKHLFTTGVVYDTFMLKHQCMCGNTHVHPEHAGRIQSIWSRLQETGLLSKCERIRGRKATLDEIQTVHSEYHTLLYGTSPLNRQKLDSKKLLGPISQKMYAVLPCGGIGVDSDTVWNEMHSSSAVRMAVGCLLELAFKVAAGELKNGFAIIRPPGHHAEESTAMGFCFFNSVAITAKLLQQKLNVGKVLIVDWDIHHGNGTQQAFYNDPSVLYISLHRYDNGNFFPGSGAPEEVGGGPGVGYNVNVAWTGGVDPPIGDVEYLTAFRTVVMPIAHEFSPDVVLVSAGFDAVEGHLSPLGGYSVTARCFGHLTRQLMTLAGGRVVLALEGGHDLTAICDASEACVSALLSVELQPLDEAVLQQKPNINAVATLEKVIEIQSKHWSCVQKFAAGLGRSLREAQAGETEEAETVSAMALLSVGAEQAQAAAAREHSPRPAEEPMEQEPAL
The target of another assay is Histone deacetylase 3 (Homo sapiens, UniProt O15379). The description is as §1.
Histone deacetylase 3, sequence (O15379 whole entry): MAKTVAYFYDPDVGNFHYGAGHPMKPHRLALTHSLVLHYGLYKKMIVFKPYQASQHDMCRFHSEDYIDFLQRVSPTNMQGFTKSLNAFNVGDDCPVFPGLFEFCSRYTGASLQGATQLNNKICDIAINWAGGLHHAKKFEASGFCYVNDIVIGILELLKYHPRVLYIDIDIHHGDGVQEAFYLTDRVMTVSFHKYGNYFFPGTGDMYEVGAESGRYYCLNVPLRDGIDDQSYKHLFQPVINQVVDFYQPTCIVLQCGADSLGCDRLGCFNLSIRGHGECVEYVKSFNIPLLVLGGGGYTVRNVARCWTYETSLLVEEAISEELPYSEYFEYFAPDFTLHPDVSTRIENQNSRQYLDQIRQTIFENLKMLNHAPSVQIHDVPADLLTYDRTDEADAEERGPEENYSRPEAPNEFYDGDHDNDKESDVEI
For a further assay, the target named is Histone deacetylase 4 (Homo sapiens, UniProt P56524). The description is as §1.
Histone deacetylase 4, sequence (P56524 whole entry): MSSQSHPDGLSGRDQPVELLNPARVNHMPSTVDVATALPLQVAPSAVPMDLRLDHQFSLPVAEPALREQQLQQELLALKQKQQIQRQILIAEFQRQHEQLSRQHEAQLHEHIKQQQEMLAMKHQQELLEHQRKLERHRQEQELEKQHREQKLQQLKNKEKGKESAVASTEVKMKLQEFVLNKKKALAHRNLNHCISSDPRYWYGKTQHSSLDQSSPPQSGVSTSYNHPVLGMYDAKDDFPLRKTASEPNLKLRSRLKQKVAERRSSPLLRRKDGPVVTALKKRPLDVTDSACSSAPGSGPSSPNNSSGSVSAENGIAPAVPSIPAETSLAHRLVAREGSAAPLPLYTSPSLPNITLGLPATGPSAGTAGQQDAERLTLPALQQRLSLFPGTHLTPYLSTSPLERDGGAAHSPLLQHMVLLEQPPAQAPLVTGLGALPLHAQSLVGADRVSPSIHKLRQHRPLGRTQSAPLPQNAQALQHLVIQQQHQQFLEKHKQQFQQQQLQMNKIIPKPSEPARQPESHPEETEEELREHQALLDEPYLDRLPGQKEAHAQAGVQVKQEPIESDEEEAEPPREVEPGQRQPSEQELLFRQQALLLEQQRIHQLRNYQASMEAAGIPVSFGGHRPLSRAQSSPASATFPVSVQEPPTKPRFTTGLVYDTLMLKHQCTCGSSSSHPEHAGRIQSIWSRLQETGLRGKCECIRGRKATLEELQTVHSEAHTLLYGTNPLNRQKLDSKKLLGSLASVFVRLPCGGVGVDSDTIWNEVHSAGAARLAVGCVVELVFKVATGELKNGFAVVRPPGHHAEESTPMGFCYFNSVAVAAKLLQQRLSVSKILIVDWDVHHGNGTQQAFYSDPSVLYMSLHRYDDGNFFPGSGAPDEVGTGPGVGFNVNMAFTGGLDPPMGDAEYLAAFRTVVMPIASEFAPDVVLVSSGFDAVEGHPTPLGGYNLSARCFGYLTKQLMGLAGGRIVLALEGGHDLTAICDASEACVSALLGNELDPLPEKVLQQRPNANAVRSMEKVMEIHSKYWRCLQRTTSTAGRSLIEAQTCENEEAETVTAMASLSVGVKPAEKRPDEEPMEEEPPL
A further assay concerns the target Histone deacetylase 2 (Homo sapiens, UniProt Q92769). The assay is described as §1.
The next assay deals with Histone deacetylase 1 (Homo sapiens, UniProt Q13547). The assay is described as §1.
Histone deacetylase 1, sequence (Q13547 whole entry): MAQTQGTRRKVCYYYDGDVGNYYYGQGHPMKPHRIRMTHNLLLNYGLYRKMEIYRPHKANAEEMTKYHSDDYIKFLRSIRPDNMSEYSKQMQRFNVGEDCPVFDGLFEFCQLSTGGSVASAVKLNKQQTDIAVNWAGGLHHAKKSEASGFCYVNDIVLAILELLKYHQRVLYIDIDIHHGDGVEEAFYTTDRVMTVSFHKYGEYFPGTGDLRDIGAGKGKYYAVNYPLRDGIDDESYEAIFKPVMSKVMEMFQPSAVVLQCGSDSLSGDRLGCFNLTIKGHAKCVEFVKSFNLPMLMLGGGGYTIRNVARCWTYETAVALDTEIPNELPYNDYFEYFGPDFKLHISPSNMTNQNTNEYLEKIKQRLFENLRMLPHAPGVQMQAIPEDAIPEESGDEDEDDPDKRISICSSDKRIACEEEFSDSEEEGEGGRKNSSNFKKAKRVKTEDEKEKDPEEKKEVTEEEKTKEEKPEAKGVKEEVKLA
The target in the next assay is T2, Histone deacetylase 11 (Homo sapiens, UniProt Q96DB2).
T2 sequence (Q96DB2 whole entry): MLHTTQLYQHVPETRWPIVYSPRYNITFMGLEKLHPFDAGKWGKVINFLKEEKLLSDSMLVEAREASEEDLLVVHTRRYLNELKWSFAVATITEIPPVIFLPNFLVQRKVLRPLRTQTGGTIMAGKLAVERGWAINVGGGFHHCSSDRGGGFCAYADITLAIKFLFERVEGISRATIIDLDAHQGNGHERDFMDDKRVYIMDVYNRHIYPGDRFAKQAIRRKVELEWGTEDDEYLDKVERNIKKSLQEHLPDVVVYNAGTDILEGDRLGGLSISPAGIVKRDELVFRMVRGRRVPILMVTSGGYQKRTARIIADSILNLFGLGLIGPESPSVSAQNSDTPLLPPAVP
The description is as §1.

Another assay concerns the target T3, Histone deacetylase 8 (Homo sapiens, UniProt Q9BY41).
T3 sequence (Q9BY41 whole entry): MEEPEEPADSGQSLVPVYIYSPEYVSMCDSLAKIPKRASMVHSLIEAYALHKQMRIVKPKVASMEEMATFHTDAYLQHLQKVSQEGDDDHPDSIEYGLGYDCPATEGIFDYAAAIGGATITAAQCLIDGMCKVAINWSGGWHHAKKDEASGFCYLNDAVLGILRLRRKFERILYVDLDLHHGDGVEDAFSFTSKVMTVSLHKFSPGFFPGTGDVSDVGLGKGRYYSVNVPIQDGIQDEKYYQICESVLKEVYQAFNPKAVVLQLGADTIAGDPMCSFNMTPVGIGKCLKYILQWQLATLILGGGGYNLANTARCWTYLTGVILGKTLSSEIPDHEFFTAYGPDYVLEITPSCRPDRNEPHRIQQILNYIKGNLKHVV
Described as §1.

For assay [2], the target named is T4, Polyamine deacetylase HDAC10 (Homo sapiens, UniProt Q969S8).
T4 sequence (Q969S8 whole entry): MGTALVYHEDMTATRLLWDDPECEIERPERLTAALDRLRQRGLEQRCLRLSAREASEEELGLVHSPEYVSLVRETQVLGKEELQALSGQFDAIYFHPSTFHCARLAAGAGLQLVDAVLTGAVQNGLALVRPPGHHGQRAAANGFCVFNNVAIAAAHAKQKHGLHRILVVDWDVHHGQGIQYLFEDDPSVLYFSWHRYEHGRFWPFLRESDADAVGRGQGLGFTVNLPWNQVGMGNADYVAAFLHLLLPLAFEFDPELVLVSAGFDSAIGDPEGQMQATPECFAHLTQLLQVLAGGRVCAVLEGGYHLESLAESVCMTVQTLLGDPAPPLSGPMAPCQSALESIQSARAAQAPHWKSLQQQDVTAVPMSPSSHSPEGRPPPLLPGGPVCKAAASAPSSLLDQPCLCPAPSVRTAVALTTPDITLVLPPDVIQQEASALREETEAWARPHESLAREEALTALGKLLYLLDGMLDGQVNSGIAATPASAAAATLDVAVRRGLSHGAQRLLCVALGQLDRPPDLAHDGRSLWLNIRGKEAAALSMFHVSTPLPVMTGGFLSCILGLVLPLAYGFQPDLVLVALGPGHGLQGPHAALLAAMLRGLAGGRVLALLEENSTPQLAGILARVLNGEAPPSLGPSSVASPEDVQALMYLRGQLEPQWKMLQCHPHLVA
The assay is described as §1.

Histone deacetylase 2, sequence (Q92769 whole entry): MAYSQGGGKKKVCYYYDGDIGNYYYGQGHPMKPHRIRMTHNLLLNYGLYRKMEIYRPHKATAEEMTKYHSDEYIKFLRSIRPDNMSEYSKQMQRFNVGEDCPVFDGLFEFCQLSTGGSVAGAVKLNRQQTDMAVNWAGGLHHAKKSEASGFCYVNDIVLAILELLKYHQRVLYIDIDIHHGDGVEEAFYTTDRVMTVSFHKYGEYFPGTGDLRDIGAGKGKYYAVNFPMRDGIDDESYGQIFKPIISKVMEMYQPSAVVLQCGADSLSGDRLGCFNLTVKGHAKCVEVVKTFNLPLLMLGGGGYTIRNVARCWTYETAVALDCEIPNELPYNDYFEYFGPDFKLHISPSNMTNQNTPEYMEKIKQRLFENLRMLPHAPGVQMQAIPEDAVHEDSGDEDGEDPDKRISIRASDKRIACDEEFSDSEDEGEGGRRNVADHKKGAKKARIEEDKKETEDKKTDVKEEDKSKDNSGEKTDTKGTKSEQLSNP

Regarding `COc1cc2c(Oc3ccc(NC(=O)C4(C(=O)Nc5ccc(F)cc5)CC4)cc3F)ccnc2cc1OCCCCCC(=O)NO`, the IC50 – broadly, the point on the concentration scale where inhibition reaches its midpoint – in assay [1] is 0.0083 µM; on Histone deacetylase 5, over 10 µM; against Histone deacetylase 3, over 10 µM; at Histone deacetylase 4, over 10 µM; against Histone deacetylase 2, 2.74 µM; at Histone deacetylase 1, over 10 µM. Further, the IC50 is 6.13 µM on Histone deacetylase 11, 1.63 µM against Histone deacetylase 8 and 11.9 µM in [2].

On to `COc1cc2c(Oc3ccc(NC(=O)C4(C(=O)Nc5ccc(F)cc5)CC4)cc3F)ccnc2cc1OCCCC(=O)NO`, for which the IC50 in assay [1] was 0.242 µM; on Histone deacetylase 5, over 10 µM; against Histone deacetylase 3, over 10 µM; on Histone deacetylase 4 it was over 10 µM; against Histone deacetylase 2 it was 0.431 µM; on Histone deacetylase 1, over 10 µM. Moreover, the IC50 against Histone deacetylase 11 was over 10 µM; against Histone deacetylase 8, 8.94 µM; in assay [2], over 10 µM.
